Experimental data reported in patent US20130071495A1, “INHIBITORS OF GLYCOGEN SYNTHASE KINASE 3 FOR USE IN THERAPEUTIC METHODS AND SCREENING METHOD RELATING THERETO” (Helmholtz Zentrum Muenchen Deutsches Forschungszentrum fuer …, priority 2010, published 2013).

Experiments:
Type in all cases: in vivo, C57BL/6N mice
[1] = tested on: elastase-induced emphysema model (mice); test: Immunoblotting and densitometry of SP-C in lung homogenates, elastase-induced emphysema; conditions: preventive approach, LiCl 200 mg/kg/day i.p. day 0-7; vehicle 0.36±0.06; p=0.0231
Description: (§1) Six- to eight-week-old pathogen-free female C57BL/6N mice (Charles River Laboratories) were used throughout this study. All experiments were performed in accordance with the guidelines of the Ethics Committee of the University of Giessen School of Medicine and approved by the Regierungspräsidium Giessen, Hesse, Germany. Mice had free access to water and rodent laboratory chow. Pancreatic elastase was dissolved in sterile PBS and applied orotracheally (100 U/kg BW). Control mice received 80 μl sterile PBS. Lung tissues were excised and snap-frozen or inflated with 4% (m/v) paraformaldehyde in PBS (PAA Laboratories) at 21 cm H2O pressure for histological analyses.
(§2) The WNT/β-catenin signaling pathway in lungs from C57BL/6N mice was activated via intraperitoneal injection of lithium chloride (200 mg/KG/BW/day) (22). Lithium chloride mimics members of the WNT family of signalling proteins by inhibiting the activity of GSK-3β and thus causes intracellular accumulation of β-catenin, a feature associated with the canonical WNT/β-catenin signalling pathway (23). Under these circumstances, β-catenin can enter the nucleus and influence the expression of target genes. Lithium chloride was diluted in sterile water and fresh stock was prepared for every injection. […]

[2] = tested on: elastase-induced emphysema model (mice); test: Quantitative morphometry of lung structure in elastase-induced emphysema
Description: as §1
The WNT/β-catenin signaling pathway in lungs from C57BL/6N mice was activated via intraperitoneal injection of lithium chloride (200 mg/KG/BW/day) (22). […]
To assess air space enlargement, the mean chord length (MCL) was quantified by superimposing a line grid on the images of lung sections at a magnification of 200×. Points on the lines of the grid hitting the air spaces, and intercepts of the lines with alveolar septa were counted to calculate MCL according to the formula: MCL=ΣPair×L(p)/(Isepta/2) (μm), where ΣPair is the sum of the points of the grid overlaid air spaces, L(p) is the line length per point and Isepta is the sum of the intercepts of alveolar septa with the lines of the grid. For the morphometric assessment of alveolar surface area per unit volume of lung parenchyma (Sv) were determined by counting the number of points that fell on alveolar septal tissue and alveolar space, and by counting the number of intercepts with alveolar septal surface at a magnification of 200× according to the following formulas: Sv=2×Isepta/(ΣPpar×L(p)/3) (1 μm), where ΣPpar is the sum of the points of hitting parenchyma, L(p) is the line length per test point in μm, and Isepta the sum of the intercepts with alveolar septa.

[3] = tested on: elastase-induced emphysema model (mice); test: qRT-PCR of ECM and alveolar epithelial cell markers in lungs, elastase-induced emphysema; conditions: preventive approach, day 7
Description: as §1
(§3) The WNT/β-catenin signaling pathway in lungs from C57BL/6N mice was activated via intraperitoneal injection of lithium chloride (200 mg/KG/BW/day) (22). Lithium chloride mimics members of the WNT family of signalling proteins by inhibiting the activity of GSK-3β and thus causes intracellular accumulation of β-catenin, a feature associated with the canonical WNT/β-catenin signalling pathway (23). Under these circumstances, β-catenin can enter the nucleus and influence the expression of target genes. Lithium chloride was diluted in sterile water and fresh stock was prepared for every injection. Mice were treated on a daily basis, from day 0, the day of elastase subjection to day 7 in the preventive regime, and from day 7 to 14 in the therapeutic regime, respectively. The following scheme illustrates preventive and therapeutic activation of WNT/β-catenin signaling in experimental emphysema:
(§4) Mice were subjected to a single orotracheal application of elastase, which led to the development of pulmonary emphysema from day 1 to 14. WNT/β-catenin activation by treatment with lithium chloride (LiCl) was initiated on day of elastase subjection to day 7 (referred to as preventive approach), or from day 7 to day 14 (referred to as therapeutic approach), using the indicated concentrations (daily application intraperitonal (i.p.), n=6 for each group).
Total RNA was extracted using Qiagen extraction kits according to the manufacturer's protocol, and cDNAs were generated by reverse transcription using SuperScript™ II (Invitrogen). Quantitative (q)RT-PCR was performed using fluorogenic SYBR Green and the Sequence Detection System Fast 7500 (PE Applied Biosystems). HPRT1 and PBGD, ubiquitously and equally expressed genes free of pseudogenes, were used as a reference gene in all human and mouse qRT-PCR reactions, respectively. PCR was performed using the primers listed in Table 1 and 2, respectively, at a final concentration of 200 nM. Relative transcript abundance of a gene is expressed in ΔCt values (ΔCt=ct^reference−Ct^target). Relative changes in transcript levels compared to controls are ΔΔCt values (ΔΔCt=ΔCt^treated−ΔCt^control). All ΔΔCt values correspond approximately to the binary logarithm of the fold change as mentioned in the text. When relative transcript abundance is of information, expression levels are given in ΔCt levels.

[4] = tested on: elastase-induced emphysema model (mice); test: Histological and immunohistochemical assessment of lung sections, elastase-induced emphysema
Description: as §1, §3
as §4, with “group). […]” for “group).”

[5] = tested on: elastase-induced emphysema model (mice); test: Collagen assay (Sircol) in whole-lung homogenates, elastase-induced emphysema; conditions: preventive approach, LiCl 200 mg/kg/day i.p. day 0-7; vehicle 29.6±4.1; p=0.042
Description: as §1
as §2, with “(23).” for “(23). Under these circumstances, β-catenin can enter the nucleus and influence the expression of target genes. Lithium chloride was diluted in sterile water and fresh stock was prepared for every injection.”
Whole-mouse lung homogenates were used for in vivo analysis. Total collagen content was determined using the Sircol Collagen Assay kit (Biocolor). […] Samples and collagen standards were then read at 540 nm in a spectrophotometer (Bio-Rad). Collagen concentrations were calculated using a standard curve with acid-soluble type I collagen.

Compound: [Cl-].[Li+] [LiCl, Lithium chloride]
- SP-C protein expression (immunoblot densitometry) [1]: 0.62±0.05
- mean chord length ([2]; preventive approach, LiCl 200 mg/kg/day i.p. day 0-7, vehicle 109.9±7.8, p=0.0021): 74.0±6.6 μm
- surface area ([2]; preventive approach, LiCl 200 mg/kg/day i.p. day 0-7, vehicle 317.8±27.5, p=0.0067): 560.7±55.7 cm^2
- mean chord length ([2]; therapeutic approach, LiCl 200 mg/kg/day i.p. day 7-14, vehicle 106.4±2.3, p=0.021): 85.3±2.5
- cadherin 1 (cdh1) mRNA, log-fold change LiCl-treated versus untreated lungs ([3]; p=0.003): 0.97±0.20
- aquaporin 5 (aqp5) mRNA, log-fold change LiCl-treated versus untreated lungs ([3]; p=0.025): 0.63±0.18
- thyroid transcription factor 1 (ttf1) mRNA, log-fold change LiCl-treated versus untreated lungs ([3]; p=0.033): 1.20±0.30
- SP-C mRNA, log-fold change LiCl-treated versus untreated lungs ([3]; p=0.0475): −1.21±0.42
- mRNA of type I collagen α1 (col1a1), log-fold change LiCl-treated versus untreated lungs ([3]; p=0.0496): −0.86±0.33
- forkhead box P2 (foxp2) mRNA, log-fold change LiCl-treated versus untreated lungs ([3]; p=0.146): 1.38±0.59
- immunohistochemical staining for SP-C, WNT3a and β-catenin ([4]; preventive approach, compared with vehicle-treated mice): increased appearance of SP-C-positive cells with enhanced staining of the WNT/β-catenin signaling component WNT3a as well as nuclear β-catenin staining
- histological assessment of the lung structure ([4]; preventive approach, day 0-7, H&E staining): marked attenuated emphysematous changes
- histological assessment of the lung structure ([4]; therapeutic approach, day 7-14, H&E staining): marked attenuation of emphysema along with restored lung architecture
- total collagen content in lung homogenates [5]: 16.1 µg/mL
